Source: PMC11568214, “The impact of 9-azaglycophymine and phenylguanidine derivatives on the proliferation of various breast cancer cell lines in vitro and in vivo” (Scientific Reports, 2024)

Key:
[1] = system: 4T1 mouse breast cancer cells (TNBC); assay: Syngeneic orthotopic 4T1 breast cancer model in BALB/c mice, tumor volume; assay type: in vivo
Text: Compound 19 was selected to be tested against a syngeneic breast cancer model induced by orthotopic inoculation of 4T1 mouse breast cancer cells (TNBC) into BALB/c mice. In that exploratory study, we aimed to investigate for the first time a proposed anticancer efficacy of that compound. For that purpose, three groups were included in the study, each comprising eight animals. The resulting total number of 24 animals aimed to avoid under- or overpowering of the study. The animals were kept under standard laboratory conditions with an ad libitum regime for food and water intake. 5 × 10^4 of 4T1 cells in 50 µL PBS were inoculated in the fourth right mammary fat pad of female mice at day 0. Anesthesia was induced using a combination of ketamine and xylazine at doses of 60 mg/kg and 7.5 mg/kg, respectively.
(§1) On day 6, the mice were assigned to the study groups using a stratified randomization approach, ensuring that the mean tumor volumes were as similar as possible across all groups. The control group was treated with 400 µL of vehicle solution, the low dose compound 19 group with 5 mg/kg in 400 µL of vehicle, and the high dose group with […] in 400 µL of vehicle. The vehicle was 4% (v/v) DMSO in PBS, and the administration route was intraperitoneal (i.p.). The animals were treated daily on days 6–10 (starting from the day when tumors became palpable), 13–17 and day 20. Animals were visually examined daily, and urine samples were collected on the first and last day of treatment and analyzed by Multistix urine test stripes (Siemens Healthineers, Erlangen, Germany). On day 21 of the experiment, the mice were sacrificed using cervical dislocation. Following the sacrifice, the tumor diameters were measured using a caliper. The tumor volume (V) was then calculated using the formula V = L*W^2*0.52[36], where L represents the longest diameter and W the shortest diameter of the tumor.

4T1 [2] = assay: Autophagy induction, acridine orange staining, flow cytometry; assay type: cell-based, mouse; set-up: key: ↑: induction; ↓: inhibition; ↔: no effect; conditions: 4T1, IC50 for 72 h
Method: Cells were seeded in 6-well plates and incubated for 24 h under standard culture conditions. […] For the analyses of autophagy induction, the cell suspension was centrifuged for 3 min at 800 rpm, and the cell pellet was stained with 1 mL of AO working solution (1 µg/mL of AO in growth medium). Cells were incubated for 15 min under standard culture conditions. The cell suspension was centrifuged for 3 min at 800 rpm, and the cell pellet was washed with 1 mL of fresh PBS. Finally, all samples were analyzed by using flow cytometry (FACSAria III, BD Biosciences, New Jersey, USA).

BT-474 [3] = assay: ROS production, DHR staining, flow cytometry; assay type: cell-based, human; set-up: key: ↑: induction; ↓: inhibition; ↔: no effect; conditions: BT-474, IC50 for 72 h
Method: (§2) The cells were stained with CFSE (1 µM) in PBS containing 0.1% (v/v) FCS for 10 min. Afterwards, cells were washed with PBS, and then seeded with growth medium in 6-well plates. The plates were incubated for 24 h under standard culture conditions. […] Subsequently, the cells were detached using 0.5 mL of 0.05% (v/v) Trypsin–EDTA for 3 min at 37 °C. Then trypsin was deactivated by the addition of FCS-containing growth medium. The cell suspensions were collected, centrifuged for 3 min at 800 rpm, and the cell pellets were resuspended in fresh PBS. Finally, the samples were analyzed by using flow cytometry. For ROS production analyses, the procedure was performed exactly as described above for the cell division experiments, except that the CFSE staining solution was replaced by DHR staining solution resulting in 1 µM of DHR in PBS containing 0.1% (v/v) FCS[34],[35].

HCC1937 [4] = assay: ROS production, DHR staining, flow cytometry; assay type: cell-based, human; set-up: key: ↑: induction; ↓: inhibition; ↔: no effect; conditions: HCC1937, IC50 for 72 h
Method: as §2

MCF-7 [5] = assay: ROS production, DHR staining, flow cytometry; assay type: cell-based, human; set-up: key: ↑: induction; ↓: inhibition; ↔: no effect; conditions: MCF-7, IC50 for 72 h
Method: as §2

MDA-MB-468 [6] = assay: ROS production, DHR staining, flow cytometry; assay type: cell-based, human; set-up: key: ↑: induction; ↓: inhibition; ↔: no effect; conditions: MDA-MB-468, IC50 for 72 h
Method: as §2

4T1 [7] = assay: NO production, DAF-FM staining, flow cytometry; assay type: cell-based, mouse; set-up: key: ↑: induction; ↓: inhibition; ↔: no effect; conditions: 4T1, IC50 for 72 h
Method: (§3) Afterwards, the medium was discarded and the cells were stained with DAF-FM (5 µM) in RPMI1640 with 10% (v/v) FCS for 1 h at 37 °C. The stain was completed by additional incubation for 15 min with serum-free medium. The cells were then detached, re-suspended in PBS and analyzed by flow cytometry.

4T1 [8] = assay: Cell division analysis, CFSE staining, flow cytometry; assay type: cell-based, mouse; set-up: key: ↑: induction; ↓: inhibition; ↔: no effect; conditions: 4T1, IC50 for 72 h
Method: as §2, with “cytometry.” for “cytometry. For ROS production analyses, the procedure was performed exactly as described above for the cell division experiments, except that the CFSE staining solution was replaced by DHR staining solution resulting in 1 µM of DHR in PBS containing 0.1% (v/v) FCS[34],[35].”

BT-474 [9] = assay: NO production, DAF-FM staining, flow cytometry; assay type: cell-based, human; set-up: key: ↑: induction; ↓: inhibition; ↔: no effect; conditions: BT-474, IC50 for 72 h
Method: as §3

HCC1937 [10] = assay: NO production, DAF-FM staining, flow cytometry; assay type: cell-based, human; set-up: key: ↑: induction; ↓: inhibition; ↔: no effect; conditions: HCC1937, IC50 for 72 h
Method: as §3

MCF-7 [11] = assay: NO production, DAF-FM staining, flow cytometry; assay type: cell-based, human; set-up: key: ↑: induction; ↓: inhibition; ↔: no effect; conditions: MCF-7, IC50 for 72 h
Method: as §3

MDA-MB-468 [12] = assay: NO production, DAF-FM staining, flow cytometry; assay type: cell-based, human; set-up: key: ↑: induction; ↓: inhibition; ↔: no effect; conditions: MDA-MB-468, IC50 for 72 h
Method: as §3

BT-474 [13] = assay: Cell division analysis, CFSE staining, flow cytometry; assay type: cell-based, human; set-up: key: ↑: induction; ↓: inhibition; ↔: no effect; conditions: BT-474, IC50 for 72 h
Method: as §2, with “cytometry.” for “cytometry. For ROS production analyses, the procedure was performed exactly as described above for the cell division experiments, except that the CFSE staining solution was replaced by DHR staining solution resulting in 1 µM of DHR in PBS containing 0.1% (v/v) FCS[34],[35].”

HCC1937 [14] = assay: as above; assay type: cell-based, human; set-up: key: ↑: induction; ↓: inhibition; ↔: no effect; conditions: HCC1937, IC50 for 72 h
Method: as §2, with “cytometry.” for “cytometry. For ROS production analyses, the procedure was performed exactly as described above for the cell division experiments, except that the CFSE staining solution was replaced by DHR staining solution resulting in 1 µM of DHR in PBS containing 0.1% (v/v) FCS[34],[35].”

MCF-7 [15] = assay: as above; assay type: cell-based, human; set-up: key: ↑: induction; ↓: inhibition; ↔: no effect; conditions: MCF-7, IC50 for 72 h
Method: as §2, with “cytometry.” for “cytometry. For ROS production analyses, the procedure was performed exactly as described above for the cell division experiments, except that the CFSE staining solution was replaced by DHR staining solution resulting in 1 µM of DHR in PBS containing 0.1% (v/v) FCS[34],[35].”

MDA-MB-468 [16] = assay: as above; assay type: cell-based, human; set-up: key: ↑: induction; ↓: inhibition; ↔: no effect; conditions: MDA-MB-468, IC50 for 72 h
Method: as §2, with “cytometry.” for “cytometry. For ROS production analyses, the procedure was performed exactly as described above for the cell division experiments, except that the CFSE staining solution was replaced by DHR staining solution resulting in 1 µM of DHR in PBS containing 0.1% (v/v) FCS[34],[35].”

[17] = Monitoring of systemic toxicity in the 4T1 in vivo study (body mass, behavior, fur, food intake); set-up: species or system BALB/c mice; conditions: 5 and 20 mg/kg i.p.
Method: as §1

In the case of O=c1[nH]c(Nc2ccc([N+](=O)[O-])cc2)nc2ccccc12 [Compound 19, 4′-nitro-9-aza-glycophymine], the “reduction of the tumor volume compared to the control group” value ([1]; 5 mg/kg i.p., day 21) is reported as 30%, the median tumor volume ([1]; 5 mg/kg i.p., days 6–10, 13–17 and 20, measured day 21, control group 205 mm^3) is reported as 143 mm^3 and the “tumor suppression at the higher dose” value ([1]; 20 mg/kg i.p., compared with 5 mg/kg) is reported as “no further improvement of the tumor suppression was observed”. For the same compound, the Autophagy (4T1 [2]) was “↔”, the ROS (BT-474 [3]) was “↓” and the ROS (HCC1937 [4]) was “↓”. The ROS (MCF-7 [5]) was “↔”, the ROS (MDA-MB-468 [6]) was “↔” and the NO (4T1 [7]) was “↑”. The Proliferation (4T1 [8]) was “↓”, the NO (BT-474 [9]) was “↑” and the NO (HCC1937 [10]) was “↑”. The NO (MCF-7 [11]) was “↑”, the NO (MDA-MB-468 [12]) was “↔” and the Proliferation (BT-474 [13]) was “↓”. The Proliferation (HCC1937 [14]) was “↓”, the Proliferation (MCF-7 [15]) was “↔” and the Proliferation (MDA-MB-468 [16]) was “↔”. For the same compound, the “acute systemic toxicity (body mass, behavioral changes, fur color and loss, food intake)” value [17] was “absence of acute systemic toxicity”.
